Measured values reported in ChEMBL document CHEMBL1201862, “PubChem BioAssay data set” (2004).
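Five compound concentrations were applied to cells in 96-well plates for 48 hours; endpoints were derived by simple linear interpolation of the resulting dose-response curve. The concentration for 50% growth inhibition is given as GI50.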 Active and inactive are the calls of the source. Rule as the data show it: active = GI50 up to about 1.1 µM and inactive = higher. Square brackets hold non-standard residues; d marks the D form. Peptide text beside a SMILES is read from it. * marks the point of attachment. X26 = COC1=CC(=O)N(C(=O)[C@@H](O*)C(C)C)[C@H]1Cc1ccccc1; NMeV = CN[C@H](C(=O)O)C(C)C; Hexanoyl = CCCCCC(=O)*

Legend:
Assay in all cases: DTP human tumour cell line panel, 48 h
786-0 = system: 786-0
A498 = system: A498
CCRF-CEM = system: CCRF-CEM
EKVX = system: EKVX
HCC 2998 = system: HCC 2998
HCT-15 = system: HCT-15
HL-60 = system: HL-60
HT-29 = system: HT-29
K562 = system: K562
LOX IMVI = system: LOX IMVI
MCF7 = system: MCF7
MDA-MB-231 = system: MDA-MB-231
NCI-H522 = system: NCI-H522
NCI/ADR-RES = system: NCI/ADR-RES
OVCAR-3 = system: OVCAR-3
RPMI-8226 = system: RPMI-8226
SF-268 = system: SF-268
SF-295 = system: SF-295
SN12C = system: SN12C
UACC-62 = system: UACC-62

SMILES	GI50 (786-0)	GI50 (A498)	GI50 (CCRF-CEM)	GI50 (EKVX)	GI50 (HCC 2998)	GI50 (HCT-15) [µM]	GI50 (HL-60)	GI50 (HT-29)	GI50 (K562)	GI50 (LOX IMVI)	GI50 (MCF7)	GI50 (MDA-MB-231)	GI50 (NCI-H522)	GI50 (NCI/ADR-RES)	GI50 (OVCAR-3)	GI50 (RPMI-8226)	GI50 (SF-268)	GI50 (SF-295)	GI50 (SN12C)	GI50 (UACC-62)
CC(=O)OCC1OC(NC(=S)Nn2c(-c3ccccc3)nc3ccccc3c2=O)C(OC(C)=O)C(OC(C)=O)C1OC(C)=O (stereo not given)	> 100 µM (inactive)	> 100 µM (inactive)	38.5 µM (inactive)	> 100 µM (inactive)	97.9 µM (inactive)	> 100	70.8 µM (inactive)	> 100 µM (inactive)	> 100 µM (inactive)	> 100 µM (inactive)	85.9 µM (inactive)	81.5 µM (inactive)	45.5 µM (inactive)	> 100 µM (inactive)	30.8 µM (inactive)	> 100 µM (inactive)	> 100 µM (inactive)	> 100 µM (inactive)	93.1 µM (inactive)	51.5 µM (inactive)
C=CN1CCN(c2ccccc2)P1(=O)Oc1ccccc1 (stereo not given)	> 100 µM (inactive)	> 100 µM (inactive)	> 100 µM (inactive)	45 µM (inactive)	> 100 µM (inactive)	> 100	> 100 µM (inactive)	92.9 µM (inactive)	> 100 µM (inactive)	> 100 µM (inactive)	> 100 µM (inactive)	55.6 µM (inactive)	31.6 µM (inactive)	55.2 µM (inactive)	> 100 µM (inactive)	> 100 µM (inactive)	> 100 µM (inactive)	> 100 µM (inactive)	> 100 µM (inactive)	53.1 µM (inactive)
COC1=CC(=O)c2c(O)c3c(c(O)c2C1=O)C[C@](C)(O)C[C@@H]3O	7.76 µM (inactive)	7.66 µM (inactive)	5.7 µM (inactive)	8.04 µM (inactive)	3.67 µM (inactive)	4.01	1.62 µM (inactive)	2.72 µM (inactive)	4.24 µM (inactive)	2.54 µM (inactive)	4.89 µM (inactive)	7.74 µM (inactive)	4.52 µM (inactive)	3.78 µM (inactive)	0.861 µM (active)	8.11 µM (inactive)	5.25 µM (inactive)	3.51 µM (inactive)	3.63 µM (inactive)	1.46 µM (inactive)
Cc1cccc2sc(NC(=O)c3cc([N+](=O)[O-])ccc3Cl)nc12	1.89 µM (inactive)	17.3 µM (inactive)	0.0817 µM (active)	11.4 µM (inactive)	9.33 µM (inactive)	1.91	72.9 µM (inactive)	1.85 µM (inactive)	> 100 µM (inactive)	2.01 µM (inactive)	1.68 µM (inactive)	4.73 µM (inactive)	1.78 µM (inactive)	2.76 µM (inactive)	4.06 µM (inactive)	3.31 µM (inactive)	3.13 µM (inactive)	4.82 µM (inactive)	1.55 µM (inactive)	3.61 µM (inactive)
C=C1C(=O)OC2C1C(OC(=O)/C(C)=C/C)CC1(C)C(=O)CCC(=C)C21 (stereo not given)	4.02 µM (inactive)	13.8 µM (inactive)	2.3 µM (inactive)	16.3 µM (inactive)	9.73 µM (inactive)	3.15	1.89 µM (inactive)	4.88 µM (inactive)	3.13 µM (inactive)	3.94 µM (inactive)	4.49 µM (inactive)	17.9 µM (inactive)	2.54 µM (inactive)	6.89 µM (inactive)	6.92 µM (inactive)	1.95 µM (inactive)	10.7 µM (inactive)	18.5 µM (inactive)	2.15 µM (inactive)	8.47 µM (inactive)
CCCCCC(=O)N[C@H](C(=O)N[C@H](C(=O)N(C)[C@H](C(=O)N1CCC[C@H]1C(=O)N1CCC[C@H]1C(=O)O[C@H](C(=O)N1C(=O)C=C(OC)[C@@H]1Cc1ccccc1)C(C)C)C(C)C)C(C)C)C(C)C (Hexanoyl-VV[NMeV]PP-X26)	57.9 µM (inactive)	46.3 µM (inactive)	48.6 µM (inactive)	85.9 µM (inactive)	> 100 µM (inactive)	> 100	> 100 µM (inactive)	> 100 µM (inactive)	71.1 µM (inactive)	> 100 µM (inactive)	59.2 µM (inactive)	34.2 µM (inactive)	> 100 µM (inactive)	> 100 µM (inactive)	> 100 µM (inactive)	84.1 µM (inactive)	> 100 µM (inactive)	> 100 µM (inactive)	94.6 µM (inactive)	82.6 µM (inactive)
Cl/C(=C\C=N\c1ccc(I)cc1)c1ccc2ccccc2c1	17.6 µM (inactive)	47.6 µM (inactive)	7.29 µM (inactive)	36.2 µM (inactive)	0.0322 µM (active)	12.6	12.9 µM (inactive)	40.5 µM (inactive)	6.14 µM (inactive)	8.53 µM (inactive)	23.2 µM (inactive)	14.5 µM (inactive)	27.2 µM (inactive)	14.9 µM (inactive)	15 µM (inactive)	17.3 µM (inactive)	20.7 µM (inactive)	19.1 µM (inactive)	17.9 µM (inactive)	8.83 µM (inactive)
CC(C)c1cc2c(cc1S(=O)(=O)O)[C@@]1(C)CCC[C@@](C)(C(=O)O)C1CC2 (stereo not given in full)	> 100 µM (inactive)	> 100 µM (inactive)	> 100 µM (inactive)	> 100 µM (inactive)	> 100 µM (inactive)	> 100	> 100 µM (inactive)	> 100 µM (inactive)	> 100 µM (inactive)	> 100 µM (inactive)	> 100 µM (inactive)	> 100 µM (inactive)	> 100 µM (inactive)	> 100 µM (inactive)	> 100 µM (inactive)	> 100 µM (inactive)	> 100 µM (inactive)	> 100 µM (inactive)	> 100 µM (inactive)	> 100 µM (inactive)
OCC1OC(n2cnc3c(Cl)nc(Nc4ccc(Cl)c(Cl)c4)nc32)CC1O (stereo not given)	8.73 µM (inactive)	10.7 µM (inactive)	8.65 µM (inactive)	9.98 µM (inactive)	7.8 µM (inactive)	8.63	7.05 µM (inactive)	7.71 µM (inactive)	8.63 µM (inactive)	7.78 µM (inactive)	11 µM (inactive)	11.8 µM (inactive)	9.29 µM (inactive)	10.4 µM (inactive)	12.2 µM (inactive)	8.13 µM (inactive)	12.7 µM (inactive)	7.98 µM (inactive)	10.5 µM (inactive)	8.73 µM (inactive)
COC(CC1(CCNc2ccccc2)C(=O)N(COCC[Si](C)(C)C)c2ccccc21)OC (stereo not given)	6.25 µM (inactive)	21.1 µM (inactive)	15.8 µM (inactive)	17.8 µM (inactive)	2.11 µM (inactive)	16	4.35 µM (inactive)	16.4 µM (inactive)	8.41 µM (inactive)	12.5 µM (inactive)	10.4 µM (inactive)	19.3 µM (inactive)	11.9 µM (inactive)	17.1 µM (inactive)	15.6 µM (inactive)	7.23 µM (inactive)	11.6 µM (inactive)	16.6 µM (inactive)	23.2 µM (inactive)	14.5 µM (inactive)
C/C=C(\C)CC/C=C/CO[Si](C)(C)C(C)(C)C	> 100 µM (inactive)	> 100 µM (inactive)	24.7 µM (inactive)	> 100 µM (inactive)	> 100 µM (inactive)	> 100	32.6 µM (inactive)	42.5 µM (inactive)	> 100 µM (inactive)	22.3 µM (inactive)	40.1 µM (inactive)	> 100 µM (inactive)	> 100 µM (inactive)	> 100 µM (inactive)	54.7 µM (inactive)	> 100 µM (inactive)	> 100 µM (inactive)	79.1 µM (inactive)	> 100 µM (inactive)	> 100 µM (inactive)
NCCCN1c2ccccc2Sc2ccc(Cl)cc21	3.24 µM (inactive)	> 10 µM (inactive)	3.19 µM (inactive)	> 7.36 µM (inactive)	2.12 µM (inactive)	4.72	9.98 µM (inactive)	2.55 µM (inactive)	2.63 µM (inactive)	3.29 µM (inactive)	1.76 µM (inactive)	3.33 µM (inactive)	3.2 µM (inactive)	> 5.4 µM (inactive)	5.3 µM (inactive)	3.95 µM (inactive)	8.17 µM (inactive)	> 5.83 µM (inactive)	6 µM (inactive)	> 7.31 µM (inactive)
O=[N+]([O-])c1cc2no[n+]([O-])c2cc1N1CCCCC1	1.29 µM (inactive)	17.9 µM (inactive)	0.38 µM (active)	2.58 µM (inactive)	13.2 µM (inactive)	3.21	1.5 µM (inactive)	1.76 µM (inactive)	1.43 µM (inactive)	1.79 µM (inactive)	1.95 µM (inactive)	8.47 µM (inactive)	1.48 µM (inactive)	3.15 µM (inactive)	1.92 µM (inactive)	1.28 µM (inactive)	8.18 µM (inactive)	17.4 µM (inactive)	1.99 µM (inactive)	13.4 µM (inactive)
O=C(/C=C/c1cccc(Br)c1)N1CCN(CCOC(c2ccccc2)c2ccccc2)CC1	40.1 µM (inactive)	44.9 µM (inactive)	17.1 µM (inactive)	> 100 µM (inactive)	46.6 µM (inactive)	27.6	17.4 µM (inactive)	21.6 µM (inactive)	13 µM (inactive)	24.2 µM (inactive)	35 µM (inactive)	> 100 µM (inactive)	29.1 µM (inactive)	35.6 µM (inactive)	50.5 µM (inactive)	12.2 µM (inactive)	> 100 µM (inactive)	53.7 µM (inactive)	31.7 µM (inactive)	25.9 µM (inactive)
